Reference: ChEMBL document CHEMBL6071211, “Invention of VH-937, a Potent HIV-1 Maturation Inhibitor with the Potential for Infrequent Oral Dosing in Humans” (ACS Med Chem Lett, 2024)

Key:
[1] = test system: Human immunodeficiency virus 1; test: Ratio of EC50 for antiviral activity against fully replicating HIV1 harboring Gag V3621/V370A mutant by multicycle assay to EC50 for antiviral activity against fully replicating wild type HIV1 NLRepRluc-P373S by multicycle assay; type: functional
[2] = test system: Human immunodeficiency virus 1; test: In vitro antiviral activity against HIV1 subtype B clinical isolate 92T593; type: functional, organism-based; details: Human immunodeficiency virus 1, 92T593
[3] = test system: Human immunodeficiency virus 1; test: In vitro antiviral activity against fully replicating wild type HIV1 harboring NLRepRluc-P373S by multicycle assay; type: functional, organism-based
[4] = test system: Human immunodeficiency virus 1; test: In vitro antiviral activity against fully replicating HIV1 harboring Gag […]/V370A mutant assessed as maximum percent inhibition by multicycle assay relative to control; type: functional
Cytochrome P450 2C19 = Cytochrome P450 2C19 (Homo sapiens, UniProt P33261); test: Inhibition of CYP2C19 (unknown origin); type: ADME
Sequence of Cytochrome P450 2C19 (P33261 whole entry): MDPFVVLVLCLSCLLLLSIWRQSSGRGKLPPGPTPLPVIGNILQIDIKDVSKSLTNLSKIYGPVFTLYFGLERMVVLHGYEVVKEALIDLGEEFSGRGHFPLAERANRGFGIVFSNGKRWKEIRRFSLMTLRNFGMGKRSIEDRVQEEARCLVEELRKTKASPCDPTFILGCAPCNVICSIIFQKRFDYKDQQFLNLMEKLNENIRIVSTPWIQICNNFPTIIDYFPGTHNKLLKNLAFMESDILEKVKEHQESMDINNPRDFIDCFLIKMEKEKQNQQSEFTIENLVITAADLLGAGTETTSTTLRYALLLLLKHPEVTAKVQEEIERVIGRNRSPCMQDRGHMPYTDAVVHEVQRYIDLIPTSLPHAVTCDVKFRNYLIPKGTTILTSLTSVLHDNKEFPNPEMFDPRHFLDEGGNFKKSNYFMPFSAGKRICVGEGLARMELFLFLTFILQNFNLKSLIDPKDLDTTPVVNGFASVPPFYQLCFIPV

[5] = test system: Human immunodeficiency virus 1; test: Ratio of EC50 for antiviral activity against fully replicating HIV1 harboring to Gag T332S/[…]/prR41G mutant by multicycle assay to EC50 for antiviral activity against fully replicating wild type HIV1 NLRepRluc-P373S by multicycle assay; type: functional
[6] = Elimination half life in dog at 5 mg/kg, po; type: ADME, organism-based, Canis lupus familiaris; details: in vivo, read-out: beta t1/2 (converted)
[7] = Metabolic stability in mouse liver microsomes assessed as half life; type: ADME, Microsome
Cytochrome P450 2C8 = target: T1, Cytochrome P450 2C8 (Homo sapiens, UniProt P10632); test: Inhibition of CYP2C8 (unknown origin); type: ADME
T1 sequence (P10632 whole entry): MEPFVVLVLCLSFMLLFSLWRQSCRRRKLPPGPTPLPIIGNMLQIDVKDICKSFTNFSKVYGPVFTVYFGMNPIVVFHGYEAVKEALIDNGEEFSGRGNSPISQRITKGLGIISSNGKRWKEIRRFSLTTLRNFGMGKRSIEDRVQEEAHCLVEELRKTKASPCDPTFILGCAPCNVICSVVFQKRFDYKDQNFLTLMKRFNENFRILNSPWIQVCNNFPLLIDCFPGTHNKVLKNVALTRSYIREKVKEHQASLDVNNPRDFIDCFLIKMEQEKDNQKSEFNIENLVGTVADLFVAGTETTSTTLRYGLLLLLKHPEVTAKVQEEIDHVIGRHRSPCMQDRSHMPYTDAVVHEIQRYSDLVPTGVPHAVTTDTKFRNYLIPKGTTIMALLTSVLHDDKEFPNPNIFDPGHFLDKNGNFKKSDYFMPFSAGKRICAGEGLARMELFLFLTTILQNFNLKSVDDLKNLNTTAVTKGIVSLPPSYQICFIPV

[8] = Aqueous solubility of compound; type: physicochemical; details: buffer
[9] = Clearance in dog at 2 mg/kg, iv; type: ADME, organism-based, Canis lupus familiaris; details: in vivo
[10] = test system: Human immunodeficiency virus 1; test: In vitro antiviral activity against HIV1 subtype C clinical isolate 97ZA009; type: functional, organism-based; details: Human immunodeficiency virus 1, 97ZA009
[11] = AUC (infinity) in dog at 2 mg/kg, iv; type: ADME, organism-based, Canis lupus familiaris; details: in vivo
[12] = AUC (infinity) in Cynomolgus monkey at 5 mg/kg, po; type: ADME, organism-based, Macaca fascicularis; details: in vivo
[13] = Metabolic stability in dog liver microsomes assessed as half life; type: ADME, Canis lupus familiaris, Microsome
[14] = test system: Human immunodeficiency virus 1; test: In vitro antiviral activity against fully replicating pseudotype HIV1 harboring Gag A364V mutant assessed as maximum percent inhibition by single cycle assay relative to control; type: functional
[15] = test system: Human immunodeficiency virus 1; test: In vitro antiviral activity against fully replicating pseudotype HIV1 harboring Gag deltaV370 mutant by single cycle assay; type: functional, organism-based
[16] = Lipophilicity, logD of compound; type: physicochemical; details: octanol/water
Cytochrome P450 2B6 = target: T2, Cytochrome P450 2B6 (Homo sapiens, UniProt P20813); test: Inhibition of CYP2B6 (unknown origin); type: ADME
T2 sequence (P20813 whole entry): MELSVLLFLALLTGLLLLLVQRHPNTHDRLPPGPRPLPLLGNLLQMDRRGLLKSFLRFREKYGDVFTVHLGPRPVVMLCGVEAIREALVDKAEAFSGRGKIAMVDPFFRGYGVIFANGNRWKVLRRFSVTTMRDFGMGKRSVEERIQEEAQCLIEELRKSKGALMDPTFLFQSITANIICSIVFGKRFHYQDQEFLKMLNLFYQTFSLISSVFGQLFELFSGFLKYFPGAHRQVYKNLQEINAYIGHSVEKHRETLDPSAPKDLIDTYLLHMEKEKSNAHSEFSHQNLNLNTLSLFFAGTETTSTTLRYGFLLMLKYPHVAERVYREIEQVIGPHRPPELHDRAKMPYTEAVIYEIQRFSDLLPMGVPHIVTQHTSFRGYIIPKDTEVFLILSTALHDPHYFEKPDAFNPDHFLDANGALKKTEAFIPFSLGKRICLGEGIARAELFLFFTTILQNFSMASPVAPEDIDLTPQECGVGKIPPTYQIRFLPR

[17] = test system: Human immunodeficiency virus 1; test: Ratio of EC50 for antiviral activity against fully replicating HIV1 harboring Gag A364V mutant by multicycle assay to EC50 for antiviral activity against fully replicating wild type HIV1 NLRepRluc-P373S by multicycle assay; type: functional
[18] = test system: Human immunodeficiency virus 1; test: In vitro antiviral activity against HIV1 subtype D clinical isolate UG270; type: functional, organism-based; details: Human immunodeficiency virus 1, UG270
[19] = test system: Human immunodeficiency virus 1; test: In vitro antiviral activity against HIV1 subtype F clinical isolate BZ126; type: functional, organism-based; details: Human immunodeficiency virus 1, BZ126
[20] = test system: Human immunodeficiency virus 1; test: In vitro antiviral activity against fully replicating HIV1 harboring Gag V370A mutant assessed as maximum percent inhibition by multicycle assay relative to control; type: functional
[21] = Clearance in mouse at 1 mg/kg, iv; type: ADME, organism-based; details: in vivo
[22] = test system: Human immunodeficiency virus 1; test: In vitro antiviral activity against fully replicating pseudotype HIV1 harboring Gag T332S/[…]/prR41G mutant assessed as maximum percent inhibition by single cycle assay relative to control; type: functional
[23] = test system: Human immunodeficiency virus 1; test: In vitro antiviral activity against fully replicating pseudotype HIV1 harboring Gag V3621/V370A mutant assessed as maximum percent inhibition by single cycle assay relative to control; type: functional
[24] = test system: Human immunodeficiency virus 1; test: Ratio of EC50 for antiviral activity against fully replicating pseudotype HIV1 harboring Gag A364V mutant by single cycle assay to EC50 for antiviral activity against fully replicating wild type pseudotype HIV1 NLRepRluc-P373S by single cycle assay; type: functional
[25] = test system: Human immunodeficiency virus 1; test: In vitro antiviral activity against fully replicating pseudotype HIV1 harboring Gag T332S/[…]/prR41G mutant by single cycle assay; type: functional, organism-based
[26] = test system: Human immunodeficiency virus 1; test: Binding affinity to HIV1 Gag A364V mutant assessed as dissociation half life by virus-like particle (VLP) assay
[27] = Metabolic stability in Cynomolgus monkey liver microsomes assessed as half life; type: ADME, Macaca fascicularis, Microsome
[28] = test system: Human immunodeficiency virus 1; test: In vitro antiviral activity against fully replicating HIV1 NL4-3 harboring Gag A364V mutant; type: functional, organism-based; details: Human immunodeficiency virus 1, NL4-3
[29] = test system: Human immunodeficiency virus 1; test: In vitro antiviral activity against fully replicating HIV1 harboring Gag T332S/[…]/prR41G mutant by multicycle assay; type: functional, organism-based
[30] = Volume of distribution at steady state in Cynomolgus monkey at 2 mg/kg, iv; type: ADME, organism-based, Macaca fascicularis; details: in vivo, read-out: Vdss
[31] = Oral bioavailability in rat at 5 mg/kg; type: ADME, organism-based; details: in vivo

With `C=C(C)[C@@H]1CC[C@]2(NCCN3CCS(=O)(=O)CC3)CC[C@]3(C)[C@H](CC[C@@H]4[C@@]5(C)CC=C(C6=CC[C@](COc7ncccc7C#N)(C(=O)O)CC6)C(C)(C)[C@@H]5CC[C@]43C)[C@@H]12` the “Ratio EC50” value [1] was 1, the EC50 [2] was 1 nM and the EC50 [3] was 2 nM. For the same molecule, the Imax [4] was 94%, the IC50 (Cytochrome P450 2C19) was greater than 4400 nM and the “Ratio EC50” value [5] was 4. For the same molecule, the half-life [6] was 26.9 h, the half-life [7] was greater than 2 h and the IC50 (Cytochrome P450 2C8) was greater than 4400 nM. The solubility [8] was less than 1000 µg/mL, the clearance [9] was 0.21 mL/min/kg and the EC50 [10] was 5 nM. It also gave an AUC(0-inf) [11] of 99.8 µM·h, an AUC(0-inf) [12] of 56.3 µM·h and a half-life [13] greater than 2 h. It also gave an Imax [14] of 57%, an EC50 [15] of 12 nM and a logD [16] of 4.74. For the same molecule, the IC50 (Cytochrome P450 2B6) was greater than 4400 nM, the “Ratio EC50” value [17] was 2.5 and the EC50 [18] was 2 nM. The EC50 [19] was 2 nM, the Imax [20] was 98.5% and the clearance [21] was 0.63 mL/min/kg. The Imax [22] was 96%, the Imax [23] was 98% and the “Ratio EC50” value [24] was 6.4. It also gave an EC50 [25] of 24 nM, a T1/2 [26] of 0.483 h and a half-life [27] of 0.2 h. It also gave an EC50 [28] of 5 nM, an EC50 [29] of 8 nM and a Vd [30] of 0.3 L/kg. The bioavailability [31] was 45.1%.
